Source: patent US20260373138A1, “COMPOUNDS WITH ANTIFUNGAL PROPERTIES” (priority 2023, published 2026)

System: A. fumigatus CEA10 reference strain
Test: Fluconazole potentiator screen: MIC by CLSI microbroth dilution with and without fluconazole
Type: cell-based, Aspergillus fumigatus
Details: for MIC: Aspergillus fumigatus, read-out: MIC (ug/mL) (−) Fluc; for MIC / MIC (ug/mL) (+) Fluc: 18 h; for MIC (ug/mL) (+) Fluc: with 32 μg/ml fluconazole, normoxia, GMM, 37 °C; for potency / potentiation of fluconazole (in words): structure-activity statements, fluconazole potentiator screen; for loss in potentiating the fluconazole: analogs of MBX-7591

Compound	MIC	MIC (ug/mL) (+) Fluc	potency / potentiation of fluconazole (in words)	loss in potentiating the fluconazole	increase in potentiation of fluconazole (morpholine series, para-fluorophenyl substitution)
O=C(c1ccsc1)N1CCN(Cc2ccc(COc3ccncc3)cc2)CC1 [MBX-8030]	1.9 µg/mL	0.50 µg/mL	–	–	–
O=C(c1cccc(F)c1)N1CCC(Cc2ccc(CN3CCOCC3)cc2)CC1 [MBX-8032]	3.1 µg/mL	8.80 µg/mL	–	–	–
O=C(c1ccsc1)N1CCC(Cc2ccc(COc3cncnc3)cc2)CC1 [MBX-8033]	39 µg/mL	27.00 µg/mL	complete loss of activity	–	–
O=C(c1ccsc1)N1CCC(Cc2ccc(COc3cccnc3)cc2)CC1 [MBX-8065]	> 19 µg/mL	>19 µg/mL	complete loss of activity	–	–
O=C(c1ccsc1)N1CCC(c2ccc(COc3ccncc3)cc2)CC1 [MBX-8066]	1.2 µg/mL	0.90 µg/mL	–	–	–
O=C(c1ccsc1)N1CCC(Cc2ccc(CNc3ccncc3)cc2)CC1 [MBX-8085]	> 19 µg/mL	>19 µg/mL	–	–	–
O=C(c1ccsc1)N1CCC(Cc2ccc(COc3ccc4scnc4c3)cc2)CC1 [MBX-8086]	> 19 µg/mL	>19 µg/mL	–	–	–
CCc1ccc(C(=O)N2CCC(Cc3ccc(COc4ccncc4)cc3)CC2)cc1 [MBX-8087]	13 µg/mL	>18 µg/mL	–	–	–
N#Cc1ccc(C(=O)N2CCC(Cc3ccc(COc4ccncc4)cc3)CC2)cc1 [MBX-8088]	6.5 µg/mL	14.50 µg/mL	antagonistic effect	–	–
O=C(c1ccc(C(F)(F)F)nc1)N1CCC(Cc2ccc(COc3ccncc3)cc2)CC1 [MBX-8089]	> 22 µg/mL	>20 µg/mL	did not result in appreciable increase in potency	–	–
O=C(N1CCC(Cc2ccc(COc3ccncc3)cc2)CC1)C12CC(C1)C2 [MBX-8090]	18.8 µg/mL	13.30 µg/mL	–	–	–
O=C(c1ccccc1Cl)N1CCC(Cc2ccc(COc3ccncc3)cc2)CC1 [MBX-8091]	> 21 µg/mL	>21 µg/mL	–	–	–
O=C(c1cccc(Cl)c1)N1CCC(Cc2ccc(COc3ccncc3)cc2)CC1 [MBX-8092]	21 µg/mL	>21 µg/mL	–	–	–
COC(=O)c1ccc(C(=O)N2CCC(Cc3ccc(COc4ccncc4)cc3)CC2)cc1 [MBX-8093]	> 22 µg/mL	>20 µg/mL	–	–	–
CC(C)(C)c1ccc(C(=O)N2CCC(Cc3ccc(COc4ccncc4)cc3)CC2)cc1 [MBX-8094]	> 22 µg/mL	>22 µg/mL	–	–	–
O=C(c1ccc(Cl)s1)N1CCC(Cc2ccc(COc3ccncc3)cc2)CC1 [MBX-8095]	6.7 µg/mL	3.80 µg/mL	–	more than 4 fold	–
O=C(c1ccc2sccc2c1)N1CCC(Cc2ccc(COc3ccncc3)cc2)CC1 [MBX-8096]	> 22 µg/mL	>22 µg/mL	–	–	–
O=C(c1ccc2scnc2c1)N1CCC(Cc2ccc(COc3ccncc3)cc2)CC1 [MBX-8097]	> 22 µg/mL	>22 µg/mL	–	–	–
O=C(c1cncs1)N1CCC(Cc2ccc(COc3ccncc3)cc2)CC1 [MBX-8098]	5.5 µg/mL	2.50 µg/mL	–	more than 4 fold	–
O=C(c1cscn1)N1CCC(Cc2ccc(COc3ccncc3)cc2)CC1 [MBX-8099]	7.81 µg/mL	3.10 µg/mL	–	more than 4 fold	–

Compound	MIC	MIC (ug/mL) (+) Fluc	potency / potentiation of fluconazole (in words)	loss in potentiating the fluconazole	increase in potentiation of fluconazole (morpholine series, para-fluorophenyl substitution)
O=C(O)c1ccc(C(=O)N2CCC(Cc3ccc(COc4ccncc4)cc3)CC2)cc1 [MBX-8138]	> 21 µg/mL	>21 µg/mL	–	–	–
CC(C)(O)c1ccc(C(=O)N2CCC(Cc3ccc(COc4ccncc4)cc3)CC2)cc1 [MBX-8139]	> 22 µg/mL	>22 µg/mL	–	–	–
Cc1cnccc1OCc1ccc(CC2CCN(C(=O)c3ccsc3)CC2)cc1 [MBX-8140]	> 20 µg/mL	>20 µg/mL	complete loss of activity	–	–
Cc1cc(OCc2ccc(CC3CCN(C(=O)c4ccsc4)CC3)cc2)ccn1 [MBX-8141]	> 20 µg/mL	>20 µg/mL	complete loss of activity	–	–
COc1cc(OCc2ccc(CC3CCN(C(=O)c4ccsc4)CC3)cc2)ccn1 [MBX-8142]	> 21 µg/mL	>21 µg/mL	complete loss of activity	–	–
Cc1ccc(S(=O)(=O)N2CCC3(CC2)CC(CCOc2ccncc2)CCO3)cn1 (stereo not drawn) [MBX-8143]	10.8 µg/mL	3.81 µg/mL	–	–	–
Cc1ccc(S(=O)(=O)N2CCC3(CC2)CC(CCOc2ccncc2)CCO3)s1 (stereo not drawn) [MBX-8144]	0.77 µg/mL	0.21 µg/mL	–	–	–
O=S(=O)(c1ccc(F)cc1)N1CCC(Cc2ccc(CN3CCOCC3)cc2)CC1 [MBX-8145]	0.3 µg/mL	0.08 µg/mL	–	–	6 fold
O=S(=O)(c1ccc(Cl)cc1)N1CCC(Cc2ccc(CN3CCOCC3)cc2)CC1 [MBX-8146]	0.28 µg/mL	0.14 µg/mL	maintain activity in the morpholine series	–	–
c1cc(OCc2ccc(CC3CCNCC3)cc2)ccn1 [MBX-8147]	> 14 µg/mL	>14 µg/mL	–	–	–
O=C(c1ccsc1)N1CCC(Cc2ccc(COc3ccnc(O)c3)cc2)CC1 [MBX-8185]	> 20 µg/mL	>20 µg/mL	complete loss of activity	–	–
O=S(=O)(c1ccc(C(F)(F)F)nc1)N1CCC(Cc2ccc(CN3CCOCC3)cc2)CC1 [MBX-8186]	4.8 µg/mL	1.90 µg/mL	maintain activity in the morpholine series	–	–
O=S(=O)(c1cccc(Cl)c1)N1CCC(Cc2ccc(CN3CCOCC3)cc2)CC1 [MBX-8187]	4.45 µg/mL	2.50 µg/mL	–	–	–
O=C(c1ccc(CC2CCN(S(=O)(=O)c3cccc(F)c3)CC2)cc1)N1CCOCC1 [MBX-8188]	> 22 µg/mL	>22 µg/mL	not tolerated	–	–
O=S(=O)(c1cccc(F)c1)N1CCN(Cc2ccc(CN3CCOCC3)cc2)CC1 [MBX-8189]	> 21 µg/mL	>21 µg/mL	–	–	–
CC1CN(Cc2ccc(CC3CCN(S(=O)(=O)c4cccc(F)c4)CC3)cc2)CC(C)O1 (stereo not drawn) [MBX-8190]	> 23 µg/mL	>23 µg/mL	not tolerated	–	–
O=C(c1ccsc1)N1CCC(Cc2ccc(COc3cc[n+]([O-])cc3)cc2)CC1 [MBX-8191]	> 20 µg/mL	>20 µg/mL	complete loss of activity	–	–
O=C(c1ccsc1)N1CCC(Cc2ccc(CO)cc2)CC1 [MBX-8192]	> 15.8 µg/mL	>15.8 µg/mL	–	–	–
O=S(=O)(c1ccc(Cl)s1)N1CCC(Cc2ccc(CN3CCOCC3)cc2)CC1 [MBX-8193]	0.63 µg/mL	0.18 µg/mL	–	–	–
O=C(c1ccsc1)N1CCC(Cc2ccc(COc3cnc4scnc4c3)cc2)CC1 [MBX-8219]	2.81 µg/mL	2.81 µg/mL	–	–	–

Compound	MIC	MIC (ug/mL) (+) Fluc	potency / potentiation of fluconazole (in words)	loss in potentiating the fluconazole	increase in potentiation of fluconazole (morpholine series, para-fluorophenyl substitution)
NCc1ccc(OCc2ccc(CC3CCN(C(=O)c4ccsc4)CC3)cc2)cc1 [MBX-8220]	> 21 µg/mL	>21 µg/mL	–	–	–
O=S(=O)(c1cccc(F)c1)N1CCC(Cc2ccc(CN3CC4CC(C3)O4)cc2)CC1 [MBX-8221]	> 17 µg/mL	>22 µg/mL	–	–	–
O=S(=O)(c1cccc(F)c1)N1CCC(Cc2ccc(N3CCOCC3)cc2)CC1 [MBX-8222]	> 21 µg/mL	>21 µg/mL	–	–	–
O=S(=O)(c1cc(F)cc(F)c1)N1CCC(Cc2ccc(CN3CCOCC3)cc2)CC1 [MBX-8223]	12.6 µg/mL	3.50 µg/mL	–	–	–
O=S(=O)(c1ccc(C(F)(F)F)cc1)N1CCC(Cc2ccc(CN3CCOCC3)cc2)CC1 [MBX-8224]	1.1 µg/mL	0.50 µg/mL	–	–	–
Nc1cc(OCc2ccc(CC3CCN(C(=O)c4ccsc4)CC3)cc2)ccn1 [MBX-8226]	20 µg/mL	11.00 µg/mL	–	–	–
O=C(c1ccsc1)N1CCC(Cc2ccc(COc3ccncc3)cc2)C1 (stereo not drawn) [MBX-8240]	4.73 µg/mL	2.37 µg/mL	–	–	–
O=S(=O)(c1ccsc1)N1CC2(CN(CCOc3ccncc3)C2)C1 [MBX-8241]	> 18 µg/mL	>18 µg/mL	–	–	–
O=C1c2ccsc2CCN1Cc1ccc(COc2ccncc2)cc1 [MBX-8243]	8.76 µg/mL	4.92 µg/mL	–	–	–
O=S(=O)(c1cccc(F)c1)N1CCC(Cc2ccc(CN3CC4(COC4)C3)cc2)CC1 [MBX-8244]	> 22 µg/mL	>22 µg/mL	–	–	–
O=S(=O)(c1cccs1)N1CCC2(CC1)CC(CCN1CCOCC1)CCO2 (stereo not drawn) [MBX-8245]	> 20 µg/mL	>20 µg/mL	–	–	–
O=S(=O)(c1cccs1)N1CCC2(CC1)CC(CCO)CCO2 (stereo not drawn) [MBX-8248]	> 17 µg/mL	>17 µg/mL	–	–	–
O=C(c1csc(Cl)c1)N1CCN(Cc2ccc(CN3CCOCC3)cc2)CC1 [MBX-8249]	> 21 µg/mL	21.00 µg/mL	–	–	–
O=S(=O)(c1cccs1)N1CCC2(CC1)C[C@H](CCOc1ccncc1)CCO2 [MBX-8250]	2.64 µg/mL	0.52 µg/mL	–	–	–
O=S(=O)(c1cccs1)N1CCC2(CC1)C[C@@H](CCOc1ccncc1)CCO2 [MBX-8251]	5.28 µg/mL	1.32 µg/mL	–	–	–
O=S(=O)(c1ccccc1F)N1CCC(Cc2ccc(CN3CCOCC3)cc2)CC1 [MBX-8252]	5.4 µg/mL	1.07 µg/mL	–	–	–
O=C(c1ccsc1)N1CCC(Cc2ccc(COc3ccnc(Cl)c3)cc2)CC1 [MBX-8253]	> 21 µg/mL	>21 µg/mL	–	–	–
CC1CC(Cc2ccc(CN3CCOCC3)cc2)CCN1S(=O)(=O)c1cccc(F)c1 (stereo not drawn) [MBX-8281]	7.03 µg/mL	1.40 µg/mL	–	–	–
O=S(=O)(c1ccc(F)cc1)N1CCC(Oc2ccc(CN3CCOCC3)cc2)CC1 [MBX-8282]	5.43 µg/mL	1.36 µg/mL	–	–	–
